The values that follow come from patent US20240279239A1, “COMPOUNDS AND METHODS FOR MODULATING SPLICING” (REMIX THERAPEUTICS INC., priority 2020, published 2024).

SMILES strings stand for the structures. Structures can show the parent of a compound that is named as a salt. Where two headings read alike, the source gives them in different places.

Type in all cases: cell-based
For assay [1], the system named is HTT. Kind of assay: RT-qPCR canonical junction panel assay, HTT. Particulars: gene panel, read-out: HTT IC50 (decrease in CJ mRNA levels). How it is done:
(§1) Example 44: Exemplary splicing assay for monitoring expression levels of splice variants Compounds described herein were used to modulate RNA transcript abundance in cells. The expression of a target mRNA was measured by detecting the formation of an exon-exon junction in the canonical transcript (CJ). A compound mediated exon-inclusion event was detected by observing an increase in formation of a new junction with an alternative exon (AJ). Real-time qPCR assays were used to detect these splicing switches and interrogate the potency of various compounds towards different target genes. A high-throughput real time quantitative PCR (RT-qPCR) assay was developed to measure these two isoforms of the mRNA (CJ and AJ) for an exemplary gene, HTT, together with a control housekeeping gene, GAPDH or GUSB or PPIA, used for normalization. Briefly, the A673 or K562 cell line was treated with various compounds described herein (e.g., compounds of Formula (I)). After treatment, the levels of the HTT mRNA targets were determined from each sample of cell lysate by cDNA synthesis followed by qPCR.
(§2) The A673 cell line was cultured in DMEM with 10% FBS. Cells were diluted with full growth media and plated in a 96-well plate (15,000 cells in 100 µl media per well). The plate was incubated at 37° C. with 5% CO2 for 24 hours to allow cells to adhere. An 11-point 3-fold serial dilution of the compounds was made in DMSO then diluted in media in an intermediate plate. Compounds were transferred from the intermediate plate to the cell plate with the top dose at a final concentration of 10 uM in the well. Final DMSO concentration was kept at or below 0.25%. The cell plate was returned to the incubator at 37° C. with 5% CO2 for an additional 24 hours.
(§3) The K562 cell line was cultured in IMDM with 10% FBS. For K562, cells were diluted with full growth media and plated in either a 96-well plate (50,000 cells in 50 uL media per well) or a 384-well plate (8,000-40,000 cells in 45 uL media per well). An 11-point 3-fold serial dilution of the compounds were made in DMSO then diluted in media in an intermediate plate. Compound was transferred from the intermediate plate to the cell plate with the top dose at a final concentration of 10 uM in the well. Final DMSO concentration was kept at or below 0.25%. Final volume was 100 uL for 96-well plate and 50 uL for 384-well plate. The cell plate was then placed in an incubator at 37° C. with 5% CO2 for 24 hours.
(§4) The cells were then gently washed with 50 uL-100 uL cold PBS before proceeding to addition of lysis buffer. 30 uL-50 uL of room temperature lysis buffer with DNAse I (and optionally RNAsin) was added to each well. Cells were shaken/mixed thoroughly at room temperature for 5-10 minutes for lysis to take place and then 3 uL-5 uL of room temperature stop solution was added and wells were shaken/mixed again. After 2-5 minutes, the cell lysate plate was transferred to ice for RT-qPCR reaction setup. The lysates could also be frozen at ˜80° C. for later use.
(§5) In some cases, a direct lysis buffer was used. An appropriate volume of 3× lysis buffer (10 mM Tris, 150 mM NaCl, 1.5%-2.5% Igepal and 0.1-1 U/uL RNAsin, pH 7.4) was directly added to either K562 or A673 cells in media and mixed by pipetting 3 times. The plates were then incubated at room temperature with shaking/rocking for 20-50 minutes to allow for lysis to take place. After this time, the cell lysate plate was transferred to ice to set up for the RT-qPCR reactions. The lysates could also be frozen at −80° C. for later use.
(§6) To set up 10 uL RT-qPCR reactions, cell lysates were transferred to 384-well qPCR plates containing the master mix according to the table below. The plates were sealed, gently vortexed, and spun down before the run. The volumes were adjusted accordingly in some instances where the reaction was carried in 20 uL. The table below summarizes the components of the RT-qPCR reactions: […]
On the technique in general: Quantitative PCR measures a nucleic acid by following its amplification.

Assay [2] relates to HTT. Kind of assay: RT-qPCR splicing assay for HTT mRNA isoforms (canonical junction CJ and alternative junction AJ). Particulars: A673 or K562 cell line, 24 hours treatment. Here is the method: as §1, §2, §3, §4, §5, §6
In another assay the test system is SMN2. Kind of assay: RT-qPCR canonical junction panel assay, SMN2. Particulars: gene panel, read-out: SMN2 IC50 (decrease in CJ mRNA levels). How it is done:
as §1, §2, §3, §4, §5, §6

In another assay the test system is Target C. Kind of assay: RT-qPCR canonical junction panel assay, Target C. Particulars: gene panel, read-out: Target C IC50 (decrease in CJ mRNA levels). How it is done:
as §1, §2, §3, §4, §5, §6

Where [3] appears, read: decrease in CJ mRNA levels, read-out: HTT CJ AC50.
Setting [4] is: increase in AJ mRNA, read-out: HTT AJ AC50.

In general, IC50 refers to the midpoint of a concentration-inhibition curve. For orientation: AC50 means the concentration at which the activity in the assay is half-maximal. Regarding `Cc1cn2cc(-n3cnc4nc(N(C)C5CC(C)(C)NC(C)(C)C5)sc4c3=O)cc(F)c2n1` [Compound 227, 6-(8-fluoro-2-methylimidazo[1,2-α]pyridin-6-yl)-2-(methyl(2,2,6,6-tetramethylpiperidin-4-yl)amino)thiazolo[4,5-d]pyrimidin-7(6H)-one, formate], the IC50 in the assay on HTT [1] is more than 10000 nM; in the assay on SMN2 it was more than 10000 nM; in the assay on Target C it was more than 10 µM. In addition, the AC50 in the assay with HTT [2] (setting [3]) and in the assay on HTT [2] (setting [4]) was more than 10000 nM in each case.

Consider `Cc1cn2cc(-c3cc(=O)n4cc(N5CCNC6(CC6)C5)sc4n3)cc(F)c2n1` [Compound 207, 7-(8-fluoro-2-methylimidazo[1,2-α]pyridin-6-yl)-2-(4,7-diazaspiro[2.5]octan-7-yl)-5H-thiazolo[3,2-α]pyrimidin-5-one], for which the half-maximal inhibitory concentration (IC50) was more than 10000 nM with HTT [1], 100 to 1000 nM in the assay on SMN2 and more than 10 µM in the assay on Target C. In addition, the concentration at half-maximal activity (AC50) with HTT [2] (setting [3]) and in the assay with HTT [2] (setting [4]) was more than 10000 nM each time.

With `Cc1cn2cc(-n3cnc4nc(N5CCNCC5)sc4c3=O)cc(F)c2n1` [Compound 226, 6-(8-fluoro-2-methylimidazo[1,2-α]pyridin-6-yl)-2-(piperazin-1-yl)thiazolo[4,5-d]pyrimidin-7(6H)-one], the half-maximal inhibitory concentration (IC50) in the assay with HTT [1] lay within 100 to 1000 nM; with SMN2, 100 to 1000 nM; in the assay with Target C, 0.1 to 1 µM. In addition, the AC50 in the assay with HTT [2] (setting [3]) and in the assay with HTT [2] (setting [4]) was 100 to 1000 nM throughout.

On to `Cc1cn2cc(-c3cc(=O)n4nc(N5CCN(C)CC5)sc4n3)cc(F)c2n1` [Compound 159, 7-(8-fluoro-2-methylimidazo[1,2-α]pyridin-6-yl)-2-(4-methylpiperazin-1-yl)-5H-[1,3,4]thiadiazolo[3,2-α]pyrimidin-5-one], for which the concentration for half-maximal inhibition (IC50) is 1000 to 10000 nM in the assay on HTT [1], 1000 to 10000 nM in the assay with SMN2 and 1 to 10 µM in the assay with Target C. In addition, the half-maximal activity concentration (AC50) with HTT [2] (setting [3]) and in the assay with HTT [2] (setting [4]) was 1000 to 10000 nM in each case.

Consider `Cc1cn2cc(-c3cn4c(=O)cc(N5CCNC6(CC6)C5)nc4s3)cc(F)c2n1` [Compound 208, 2-(8-fluoro-2-methylimidazo[1,2-α]pyridin-6-yl)-7-(4,7-diazaspiro[2.5]octan-7-yl)-5H-thiazolo[3,2-α]pyrimidin-5-one], for which the values for the IC50 in the assay with HTT [1], with SMN2 and in the assay with Target C were 1000 to 10000 nM, 1000 to 10000 nM and 1 to 10 µM, respectively. The AC50 in the assay on HTT [2] (setting [3]) and in the assay on HTT [2] (setting [4]) was 1000 to 10000 nM each time.

In the case of `Cc1cn2cc(-c3nn4c(=O)cc(N5CCN(C)CC5)nc4s3)cc(F)c2n1` [Compound 217, 2-(8-fluoro-2-methylimidazo[1,2-α]pyridin-6-yl)-7-(4-methylpiperazin-1-yl)-5H-[1,3,4]thiadiazolo[3,2-α]pyrimidin-5-one], the IC50 in the assay on HTT [1] is 1000 to 10000 nM; in the assay with SMN2, 1000 to 10000 nM; in the assay on Target C, 1 to 10 µM. Further, the AC50 in the assay with HTT [2] (setting [3]) and in the assay on HTT [2] (setting [4]) was 1000 to 10000 nM in each case.

For `Cc1cn2cc(-n3cnc4nc(N5CCNCC5)sc4c3=O)cc(C(F)(F)F)c2n1` [Compound 229, 6-(2-methyl-8-(trifluoromethyl)imidazo[1,2-α]pyridin-6-yl)-2-(piperazin-1-yl)thiazolo[4,5-d]pyrimidin-7(6H)-one], the concentration for half-maximal inhibition (IC50) is more than 10000 nM with HTT [1], more than 10000 nM in the assay with SMN2 and more than 10 µM with Target C. Besides, the AC50 with HTT [2] (setting [3]) and in the assay on HTT [2] (setting [4]) was more than 10000 nM each time.

`Cc1cn2nc(-c3cc4ncn(C5CCNCC5)c(=O)c4s3)cc(C)c2n1` [Compound 238, 6-(2,8-dimethylimidazo[1,2-b]pyridazin-6-yl)-3-(piperidin-4-yl)thieno[3,2-d]pyrimidin-4(3H)-one]: the IC50 was 100 to 1000 nM with HTT [1], less than 100 nM with SMN2 and 1 to 10 µM in the assay on Target C. The AC50 with HTT [2] (setting [3]) and in the assay with HTT [2] (setting [4]) was 100 to 1000 nM throughout.

As for `Cc1cn2nc(-c3nc4ncn(C5CCNCC5)c(=O)c4s3)cc(C)c2n1` [Compound 231, 2-(2,8-dimethylimidazo[1,2-b]pyridazin-6-yl)-6-(piperidin-4-yl)thiazolo[4,5-d]pyrimidin-7(6H)-one], the IC50 in the assay on HTT [1] fell in the range of 100 to 1000 nM; in the assay on SMN2, 1000 to 10000 nM; in the assay on Target C, 1 to 10 µM. Further, the AC50 in the assay with HTT [2] (setting [3]) and in the assay with HTT [2] (setting [4]) was 100 to 1000 nM each time.

As to `Cc1cn2cc(-c3nn4c(=O)cc(N5CCNCC5)nc4s3)cc(F)c2n1` [Compound 214, 2-(8-fluoro-2-methylimidazo[1,2-α]pyridin-6-yl)-7-(piperazin-1-yl)-5H-[1,3,4]thiadiazolo[3,2-α]pyrimidin-5-one], the values for the IC50 in the assay with HTT [1], with SMN2 and in the assay with Target C were 1000 to 10000 nM, 100 to 1000 nM and more than 10 µM, respectively. Also, the AC50 with HTT [2] (setting [3]) was 1000 to 10000 nM; in the assay on HTT [2] (setting [4]) it was more than 10000 nM.

For the compound `Cc1cn2cc(-c3nn4c(=O)cc(N(C)C5CC(C)(C)NC(C)(C)C5)nc4s3)cc(F)c2n1` [Compound 215, 2-(8-fluoro-2-methylimidazo[1,2-α]pyridin-6-yl)-7-(methyl(2,2,6,6-tetramethylpiperidin-4-yl)amino)-5H-[1,3,4]thiadiazolo[3,2-α]pyrimidin-5-one], the IC50 with HTT [1] was in the range of 1000 to 10000 nM; in the assay with SMN2, 100 to 1000 nM; in the assay on Target C it was 1 to 10 µM. Further, the AC50 in the assay with HTT [2] (setting [3]) and in the assay with HTT [2] (setting [4]) was 1000 to 10000 nM each time.

As to `Cc1cc(-c2nc3ncn(C4CCNCC4)c(=O)c3s2)cc2cn(C)nc12` [Compound 233, 2-(2,7-dimethyl-2H-indazol-5-yl)-6-(piperidin-4-yl)thiazolo[4,5-d]pyrimidin-7(6H)-one], the results for the 50% inhibitory concentration (IC50) in the assay on HTT [1], in the assay on SMN2 and in the assay with Target C were less than 100 nM, less than 100 nM and 0.1 to 1 µM, respectively. The AC50 with HTT [2] (setting [3]) and in the assay on HTT [2] (setting [4]) was less than 100 nM throughout.

In the case of `Cc1cc(-c2cc(=O)n3cc(N4CCN(C)CC4)sc3n2)cc2cn(C)nc12` [Compound 109, 7-(2,7-dimethyl-2H-indazol-5-yl)-2-(4-methylpiperazin-1-yl)-5H-thiazolo[3,2-α]pyrimidin-5-one], the IC50 was more than 10000 nM in the assay on HTT [1], more than 10000 nM in the assay on SMN2 and more than 10 µM with Target C. Moreover, the AC50 with HTT [2] (setting [3]) and in the assay on HTT [2] (setting [4]) was more than 10000 nM in each case.

On to `Cc1cn2cc(-c3nn4c(=O)cc(N5CCNC6(CC6)C5)nc4s3)cc(F)c2n1` [Compound 216, 2-(8-fluoro-2-methylimidazo[1,2-α]pyridin-6-yl)-7-(4,7-diazaspiro[2.5]octan-7-yl)-5H-[1,3,4]thiadiazolo[3,2-α]pyrimidin-5-one], for which the IC50 lay within 1000 to 10000 nM in the assay on HTT [1], 1000 to 10000 nM in the assay on SMN2 and 1 to 10 µM with Target C. Moreover, the AC50 in the assay with HTT [2] (setting [3]) and in the assay with HTT [2] (setting [4]) was 1000 to 10000 nM in each case.

On to `Cc1cc(-c2nn3c(=O)cc(N4CCNCC4)nc3s2)cc2cn(C)nc12` [Compound 206, 2-(2,7-dimethyl-2H-indazol-5-yl)-7-(piperazin-1-yl)-5H-[1,3,4]thiadiazolo[3,2-α]pyrimidin-5-one], for which the IC50 in the assay with HTT [1] lay within 1000 to 10000 nM; with SMN2, 100 to 1000 nM; in the assay on Target C it was 1 to 10 µM. Moreover, the concentration at half-maximal activity (AC50) with HTT [2] (setting [3]) and with HTT [2] (setting [4]) was 1000 to 10000 nM each time.
